Non-standard residues stand in square brackets, D forms with d. Residues, ends and D or L forms follow the SMILES beside them. dPip = O=C(O)[C@H]1CCCCN1

We go through one molecule from patent publication US5436229A, “Bisulfite adducts of arginine aldehydes” (Eli Lilly and Company, priority 1994, dated 1995).

The target in one series is human thrombin (Homo sapiens, UniProt P00734). The series can be described thus: Thrombin amidase inhibition (Kass), chromogenic substrate. It is filed as biochemical. In short, it runs like this: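 Kass, in liter per mole, was averaged over several compound concentrations, using free thrombin from a rate standard curve and free inhibitor as added minus bound. Hydrolysis of chromogenic substrate (0.25 mg/ml solution) was monitored at 405 nm with human thrombin (8 NIH units/ml solution) in Tris-NaCl buffer pH 7.4, compound in 50% aqueous methanol.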

Series [1] concerns the target T1, tissue plasminogen activator (t-PA) (Homo sapiens, UniProt P00750).
T1 construct: purchased American Diagnostica, Greenwich, Conn
The series can be described thus: Serine protease inhibition (Kass), t-PA. In kind it is biochemical.

The nature of series [2]: Index of Bioavailability (plasma TT AUC, oral vs i.v.). It is filed as in vivo. Conditions: rats, oral vs i.v. bolus. The source says:
Assays are done in duplicate and averaged.
Each sample population represents alternating sequential time points.

Series [3] is described as follows: Pharmacokinetic Model, oral gavage. In kind it is in vivo. Conditions: dogs, single 2 mg/kg oral gavage. The procedure:
Male dogs (Beagles; 18 months-2 years; 12-13 kg, Marshall Farms, North Rose, N.Y. 14516) are fasted overnight and fed Purina certified Prescription Diet (Purina Mills, St. Louis, Mo.) 240 minutes after dosing. Water is available ad libitum. The room temperature is maintained between 66°-74° F.; 45-50 percent relative humidity; and lighted from 0600-1800 hours.
Test compound is formulated immediately prior to dosing by dissolving in sterile 0.9 percent saline to a 5 mg/ml preparation. Dogs are given a single 2 mg/kg dose of test compound by oral gavage. Blood samples (4.5 ml) are taken from the cephalic vein at 0.25, 0.5, 0.75, 1,2,3,4 and 6 hours after dosing. Samples are collected in citrated Vacutainer tubes and kept on ice prior to reduction to plasma by centrifugation. Plasma samples are derivatized with dinitrophenylhydrazine and analyzed by HPLC (Zorbax SB-C8 column) eluting with methanol/500 mM sodium acetate adjusted to pH7 with phosphoric acid (60:40, v/v). Plasma concentration of test compound is recorded and used to calculate the pharmacokinetic parameters: elimination rate constant, Ke; total clearance, Clt; volume of distribution, VD; time of maximum plasma test compound concentration, Tmax; maximum concentration of test compound of Tmax, Cmax; plasma half-life, t0.5; and area under the curve, A.U.C.; fraction of test compound absorbed, F.

Series [4] concerns coronary artery thrombosis. The series can be described thus: Canine Model of Coronary Artery Thrombosis. It is filed as in vivo, dogs. How it is done: Surgical preparation and instrumentation of the dogs are as described in Jackson, et al., Circulation, 82, 930-940 (1990). Mixed-breed hounds (aged 6-7 months, either sex, Hazelton-LRE, Kalamazoo, Mich., U.S.A.) are anesthetized with sodium pentobarbital (30 mg/kg intravenously, i.v.), intubated, and ventilated with room air. Tidal volume and respiratory rates are adjusted to maintain blood PO2, PCO2, and pH within normal limits. Subdermal needle electrodes are inserted for the recording of a lead II ECG.
The left jugular vein and common carotid artery are isolated through a left mediolateral neck incision. Arterial blood pressure (ABP) is measured continuously with a precalibrated Millar transducer (model (MPC-500, Millar Instruments, Houston, Tex., U.S.A.) inserted into the carotid artery. The jugular vein is cannulated for blood sampling during the experiment. In addition, the femoral veins of both hindlegs are cannulated for administration of test compound.
A left thoracotomy is performed at the fifth intercostal space, and the heart is suspended in a pericardial cradle. A 1- to 2-cm segment of the left circumflex coronary artery (LCX) is isolated proximal to the first major diagonal ventricular branch. A 26-gauge needle-tipped wire anodal electrode (Teflon-coated, 30-gauge silverplated copper wire) 3-4 mm long is inserted into the LCX and placed in contact with the intimal surface of the artery (confirmed at the end of the experiment). The stimulating circuit is completed by placing the cathode in a subcutaneous (s.c.) site. An adjustable plastic occluder is placed around the LCX, over the region of the electrode. […] All hemodynamic and ECG measurements are recorded and analyzed with a data acquisition system (model M3000, Modular Instruments, Malvern, Pa. U.S.A.).
Electrolytic injury of the intima of the LCX is produced by applying 100-μA direct current (DC) to the anode. […] Thrombus formation proceeds spontaneously until the LCX is totally occluded (determined as zero CBF and an increase in the S-T segment). […]

Another series deals with template bleeding time. The series can be described thus: Template Bleeding Time assay. It is filed as in vivo, dogs. Conditions: 0.25, 0.50 and 1.0 mg/kg.hr, over a 240 minute time. The procedure:
Whole blood cell counts, hemoglobin, and hematocrit values are determined on a 40-μl sample of citrated (3.8 percent) blood (1 part citrate:9 parts blood) with a hematology analyzer (Cell-Dyn 900, Sequoia-Turner. Mount View, Calif., U.S.A.). Gingival template bleeding times are determined with a Simplate II bleeding time device (Organon Teknika Durham, N.C., U.S.A.). The device is used to make 2 horizontal incisions in the gingiva of either the upper or lower left jaw of the dog. Each incision is 3 mm wide×2 mm deep. The incisions are made, and a stopwatch is used to determine how long bleeding occurs. A cotton swab is used to soak up the blood as it oozes from the incision. Template bleeding time is the time from incision to stoppage of bleeding. Bleeding times are taken just before administration of test compound (0 min), 60 min into infusion, at conclusion of administration of the test compound (120 min), and at the end of the experiment.
All data are analyzed by one-way analysis of variance (ANOVA) followed by Student-Neuman-Kuels post hoc t test to determine the level of significance. Repeated-measures ANOVA are used to determine significant differences between time points during the experiments. Values are determined to be statistically different at least at the level of p<0.05. All values are mean±SEM. […]

T1 sequence (P00750 36-562): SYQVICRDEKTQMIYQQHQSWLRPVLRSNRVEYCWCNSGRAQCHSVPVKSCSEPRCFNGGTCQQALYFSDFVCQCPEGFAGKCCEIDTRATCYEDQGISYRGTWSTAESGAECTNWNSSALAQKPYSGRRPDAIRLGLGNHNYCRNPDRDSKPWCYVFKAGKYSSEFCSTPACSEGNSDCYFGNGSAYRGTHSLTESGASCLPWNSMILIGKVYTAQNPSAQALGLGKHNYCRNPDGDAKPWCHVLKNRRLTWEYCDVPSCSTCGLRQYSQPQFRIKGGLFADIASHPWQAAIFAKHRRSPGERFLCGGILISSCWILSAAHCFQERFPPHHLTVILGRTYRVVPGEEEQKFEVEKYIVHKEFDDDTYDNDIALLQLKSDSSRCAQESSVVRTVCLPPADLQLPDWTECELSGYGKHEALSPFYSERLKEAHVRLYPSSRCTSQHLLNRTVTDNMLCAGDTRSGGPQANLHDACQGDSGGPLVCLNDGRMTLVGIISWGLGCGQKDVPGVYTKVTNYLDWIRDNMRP

As to `Cl.Cl.N=C(N)NCCC[C@@H](C=O)NC(=O)[C@@H]1CCCN1C(=O)[C@H]1CCCCN1` [Example 1, D-Homoprolinyl-L-Prolinyl-L-Arginine Aldehyde Dihydrochloride] (H-[dPip]-Pro-Arg-aldehyde), the “Kass Human Thrombin” value on human thrombin worked out at 46 L/mol × 10^6. Also, the “Kass t-PA” value in series [1] was found to be 0.02 L/mol × 10^6. Further, the “Percent Relative Activity (Index of Bioavailability)” value in series [2] is reported as 38%. In series [3], the A.U.C. o-infinity worked out at 4651 ng·h/mL, the Clt/F was 7.28 mL/min/kg, the highest concentration (Cmax) is 1676 ng/mL and the Ke was 0.0104 min.-1. In series [3], the Tmax is 1 to 2 h, the VD/F was 0.729 L/kg and the t0.5 stood at 67 min. Also, in series [4] (dose 0.25 mg/kg.hr), the “Time to Occlusion” value stood at 60 min. The “Time to Occlusion” value in series [4] (dose 0.50 mg/kg.hr) is given as 150 min. Besides, the “Time to Occlusion” value in series [4] (dose 1.00 mg/kg.hr) is greater than 225 min. Moreover, in the series on template bleeding time, the “effect on template bleeding time” value was “no significant effect on template bleeding time”.

In general, Cmax refers to the peak of the concentration-time curve. As a reminder, the Tmax is the time at which the peak concentration occurs.
